We go through one compound from patent publication US20230132088A1, “DETECTION OF GENE POLYMORPHISMS” (The Board of Trustees of the Leland Stanford Junior …, priority 2020, published 2023).

The series is described as follows: Population pharmacokinetic analysis of INH clearance in tuberculosis patients, by predicted NAT2 acetylator type. The settings on record: human, plasma, INH clearance rate (median), 48 pulmonary TB patients.

The clearance is the volume of plasma or blood freed of the substance per unit of time. Take `NNC(=O)c1ccncc1` [INH, isoniazid]: the clearance runs as follows: (predicted fast (rapid) acetylators) 778 mL/min; (predicted intermediate acetylators) 683 mL/min; (predicted slow acetylators, standardized weight-based dosing) 322 mL/min.
